According to patent publication US20070203109A1, “Compounds And Compositions For Treatment Of Cancer” (priority 2004, published 2007):
Entries after “also recorded” stand apart in the source; their conditions may differ. Like-named read-outs stand apart in the source and are kept apart here.

Assays:
[1] = target: DT-Diaphorase (DTD) (Homo sapiens, UniProt P15559); experiment: Suitability as substrate for DTD (activation by DTD); type: biochemical
Excerpt: The results of these tests are set out in Table 2.

[2] = system: skin biopsy lesions; experiment: Comet-X assay on skin biopsy lesions; type: in vivo, human; details: highest cohort treated
[3] = system: DNA of human lymphocytes (PBLs); experiment: RH1 drug dosimetry in human lymphocytes in vitro (Comet-X assay); type: cell-based
Experimental: Optimal DNA cross-linking is shown in the range 50 to 100 nM RH1.
The Comet assay is a sensitive method of detecting DNA breaks in single cells. The cells are embedded in agarose and spread onto microscope slides. After lysis and de-proteinisation, the cells are subjected to alkaline unwinding at high pH (12.5). The DNA becomes relaxed and unwinds at points where DNA single and double strand breaks occur. The cells are then finally subjected to micro-electrophoresis during which relaxed and damaged DNA migrates away from the nucleus resulting in the classic comet shape when visualised under microscopy. This migration of DNA is retarded when the DNA has been subjected to interstrand cross-linking by drugs such as RH1. In the comet-X assay used in this trial, control non-drug treated lymphocytes from the patient's pre-infusion are subjected to gamma radiation to introduce a fixed number of DNA breaks into each cell. This treatment results in a fixed amount of migration under electrophoresis quantified as the percentage (%) of DNA in the tail of the comet image. Patients lymphocytes exposed to RH1 on infusion are collected and irradiated with the same dose of gamma radiation as the control pre-infusion lymphocytes. […] Results are expressed as % DNA cross linked. […]

[4] = physchem; details: 25 °C, aqueous buffer
[5] = clinical; parameters: species or system human; details: in vivo; for half-life: iv
Experimental: RH-1 is activated by NAD(P)H: Quinone acceptor oxidoreductase (NQO1; DT-diaphorase, DTD). DTD is often over-expressed in lung, colon, liver and breast tumours. RH-1 is undergoing Phase I trial at the Christie Hospital, UK. The pharmacokinetic (PK) requirements of this trial required assays that detect nM levels of RH-1 in serum using LC-MS. The extraction and quantitation of RH-1 from human plasma was validated and a limit of detection of 1 ng/ml reached.
(§1) RH1 was administered intravenously on a daily schedule for 5 day periods following a dose escalation scheme. Treatment was repeated on a 21 day cycle. A dose escalation scheme was used to try to establish dose-limiting toxicity. Predicted toxicity includes myelosuppression, emesis, renal toxicity and local injection site irritation. Safety and tolerability were monitored each cycle. Anti-tumour response was assessed after each 2 cycles using RECIST criteria.
Patients lymphocytes exposed to RH1 on infusion were analysed using the comet-X assay, which detects DNA interstrand cross-links.

[6] = physchem; details: buffer, pH 7
[7] = system: DNA of peripheral blood lymphocytes; experiment: Comet-X assay of patients' peripheral blood lymphocytes in the Phase I trial; type: in vivo, human
Excerpt: A modified version of the single cell gel electrophoresis comet assay, the Comet-X, specifically detects DNA cross-linking in individual cells and has been validated for clinical trial use. 9 patients have been treated with RH-1 and PMBCs (peripheral blood lymphocytes) isolated from pre-infusion and post infusion time points on both day 1 and day 5 of treatment were subjected to Comet-X assay (FIG. 2). From the data obtained, accumulative DNA damage appears to be occurring in PBMC's over the 5 day infusion period leading to significant DNA cross linking (30%) by day 5 (FIG. 3). Other PD (pharmacodynamic) assays used in the trial include assessment of DTD levels and activity and RFLP genotyping of the NQO1 gene.
The Comet assay is a sensitive method of detecting DNA breaks in single cells. The cells are embedded in agarose and spread onto microscope slides. After lysis and de-proteinisation, the cells are subjected to alkaline unwinding at high pH (12.5). The DNA becomes relaxed and unwinds at points where DNA single and double strand breaks occur. The cells are then finally subjected to micro-electrophoresis during which relaxed and damaged DNA migrates away from the nucleus resulting in the classic comet shape when visualised under microscopy. This migration of DNA is retarded when the DNA has been subjected to interstrand cross-linking by drugs such as RH1. In the comet-X assay used in this trial, control non-drug treated lymphocytes from the patient's pre-infusion are subjected to gamma radiation to introduce a fixed number of DNA breaks into each cell. This treatment results in a fixed amount of migration under electrophoresis quantified as the percentage (%) of DNA in the tail of the comet image. Patients lymphocytes exposed to RH1 on infusion are collected and irradiated with the same dose of gamma radiation as the control pre-infusion lymphocytes. It was expected that interstrand cross-links produced by RH1 will retard the migration of DNA during electrophoresis resulting in less DNA in the tail of the comet compared to the irradiation only controls. Results are expressed as % DNA cross linked.
To date 12 patients have been treated with RH1 and peripheral blood lymphocytes isolated from pre-infusion and post infusion time points on both day 1 and day 5 of treatment. These lymphocytes have been subjected to the Comet-X assay described above and the amount of DNA present in the tail of the comets following irradiation has been measured. Internal QC samples have been run each time a patients samples have been processed. The data has been pooled into exposure times (short 5-10 minutes, medium 40-120 minutes and long 4-24 hrs exposure) and dose cohorts, (1) 40-135 μg/m^2, (2) 200-326 μg/m^2, (3) 410-810 μg/m^2, and (4) […] ranges for ease of analysis.

[8] = system: solid tumours; experiment: Phase I clinical trial: safety, tolerability and anti-tumour response; type: in vivo, human
Excerpt: The RH1 trial involved administering RH1 to patients having histologically proven solid tumours that were refractory to conventional treatment or for whom no conventional treatment exists. The WHO performance status of these patients was 0 or 1. WHO performance status is an indicator of a patients overall level of well being/activity. A WHO performance status of 0 means that the patient is fully active, able to carry out all normal activity, without restriction. A WHO performance status of 1 means the patient is restricted in physically strenuous activity but ambulatory and able to carry out work of a light or sedentary nature, e.g. light house work, office work.
as §1

Chain of DT-Diaphorase (DTD) (P15559 whole entry): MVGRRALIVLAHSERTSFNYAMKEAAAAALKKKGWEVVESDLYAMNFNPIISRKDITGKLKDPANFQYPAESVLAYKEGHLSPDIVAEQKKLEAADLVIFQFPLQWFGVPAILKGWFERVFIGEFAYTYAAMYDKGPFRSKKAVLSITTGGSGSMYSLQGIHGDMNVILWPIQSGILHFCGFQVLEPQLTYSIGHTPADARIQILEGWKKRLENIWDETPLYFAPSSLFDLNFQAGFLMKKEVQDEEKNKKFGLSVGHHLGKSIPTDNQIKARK

For `CCOC(=O)NC1=C(N2CC2)C(=O)C(NC(=O)OCC)=C(N2CC2)C1=O` [AZQ, 3,6-diaziridinyl-2,5-bis-(carboethoxyamino)1,4-benzoquinone], the DTD substrate [1] was “Moderate”.
For `CO[C@@]12[C@H](COC(N)=O)C3=C(C(=O)C(C)=C(N)C3=O)N1C[C@@H]1N[C@@H]12` [Mitomycin C], the DTD substrate [1] was “Poor” and the DTD substrate ([1]; listed as mitomycin C) was “relatively poor substrate”.
For `Cn1c(/C=C/CO)c(CO)c2c1C(=O)C=C(N1CC1)C2=O` [E09, 3-HYDROXYMETHYL-5-AZIRIDINYL-1METHYL-2-[1H-INDOLE-4,7-DIONE]-PROPANOL], the DTD substrate [1] was “Moderate”.
In the case of `O=C1C(NCCO)=C(N2CC2)C(=O)C(NCCO)=C1N1CC1` [BZQ, 3,6-diaziridinyl-2,5-bis-2(-hydroxyethylamino)1,4-benzoquinone], the DTD substrate [1] was “Poor”.
In the case of `CC1=C(N2CC2)C(=O)C(CO)=C(N2CC2)C1=O` [RH1, 2,5-diaziridinyl-3-hydroxymethyl-6-methyl-1,4-benzoquinone], the “Comet-X result on skin biopsy lesions” value [2] was “demonstrate efficacy”, the “dose response of DNA cross-linking” value ([3]; PBLs treated 5-100 nM RH1, 2 hours, 37° C., concentration increased to 50 nM) was “increase in DNA cross-linking” and the “RH1 concentration range of optimal DNA cross-linking” value ([3]; human lymphocytes, Comet-X, FIG. 1) was 50 to 100 nM. For the same molecule, the solubility [4] was greater than 500 µg/mL, the Clearance saturability ([5]; human) was “did not appear to be saturable” and the half-life ([5]; human, half-life (clearance from the blood)) was roughly 6 min. For the same molecule, the half-life ([5]; human, plasma half-life) was 2 to 12 min, the “relationship between drug dose and area under the curve” value [5] was “linear relationship” and the DTD substrate [1] was “excellent substrate”. The DTD substrate ([1]; listed as RH-1) was “good substrate”, the half-life [6] was greater than 48 h and the “cross-linking on day 5 compared with day 1” value ([7]; all patients, statistical analysis) was “significantly more cross-linking”. For the same molecule, the “DNA cross linking in PBMCs” value ([7]; by day 5 of the 5 day infusion period) was 30%, the “% DNA in the tail (distribution peak)” value ([7]; day 1, similar to irradiated control) was 70-80% and the “% DNA in the tail (distribution peak)” value ([7]; day 5, PBLC population) was 60-70%. For the same molecule, the “degree of cross-linking in PBMCs, highest cohort” value ([7]; highest cohort (1080-1095 mg/m^2), day 5) was 15-20%, the “DNA cross-linking, medium dose cohort” value ([7]; medium dose cohort, day 1 (particularly 4 hr, 24 hr samples) and throughout day 5) was “evidence of DNA cross-linking” and the “DNA cross-linking, low dose cohort” value ([7]; pooled data, low dose cohort, day 1 or day 5) was “no DNA cross-linking”. For the same molecule, the “toxicity, patient 5” value ([8]; patient 005, 265 μg/m^2/d) was “grade I thrombocytopenia; also recorded: grade I renal impairment”, the “toxicity, patient 007” value ([8]; patient 007, dose level 7) was “evidence of toxicity” and the “treatment-related toxicity, first 4 patients” value ([8]; patients 001-004, 40-200 μg/m^2/d i.v. daily x5) was “no treatment-related toxicity”.
